Experimental data from publication PMC5218480 (PLoS ONE, 2017).

System: MV-4-11 cells
Assay: Gene expression microarray analysis (Affymetrix PrimeView) and GSEA
Type: cell-based, human
Set-up: RFU PODN (11730768_x_at) / Fold change /veh PODN (11730768_x_at) / RFU LINC00158 (11744669_a_at) / Fold change /veh LINC00158 (11744669_a_at) / RFU DUSP10 (11751237_a_at) / Fold change /veh DUSP10 (11751237_a_at) / RFU ID3 (11757404_x_at) / Fold change /veh ID3 (11757404_x_at) / RFU PLEKHG5 (11737974_s_at) / Fold change /veh PLEKHG5 (11737974_s_at) / RFU LRRC4B (11730491_at) / Fold change /veh LRRC4B (11730491_at) / RFU GIMAP4 (11747438_a_at) / Fold change /veh GIMAP4 (11747438_a_at) / RFU KRT8 (11758183_x_at) / Fold change /veh KRT8 (11758183_x_at) / RFU CNN1 (11734310_a_at) / Fold change /veh CNN1 (11734310_a_at) / RFU VPS37D (11726825_at) / Fold change /veh VPS37D (11726825_at) / RFU C10orf10 (11716522_x_at) / Fold change /veh C10orf10 (11716522_x_at) / RFU KIR2DL2 /// KIR2DL4 /// KIR2DL5A /// KIR2DL5B /// KIR2DS1 /// KIR2DS2 /// KIR2DS3 /// KIR2DS4 /// KIR3DL3 /// KIR3DL3 /// KIR3DS1 (11738374_at) / Fold change /veh KIR2DL2 /// KIR2DL4 /// KIR2DL5A /// KIR2DL5B /// KIR2DS1 /// KIR2DS2 /// KIR2DS3 /// KIR2DS4 /// KIR3DL3 /// KIR3DL3 /// KIR3DS1 (11738374_at) / RFU C1QL1 (11718748_at) / Fold change /veh C1QL1 (11718748_at) / RFU TMPRSS4 (11747572_a_at) / Fold change /veh TMPRSS4 (11747572_a_at) / RFU HAMP (11756126_x_at) / Fold change /veh HAMP (11756126_x_at) / RFU RNFT2 (11725882_a_at) / Fold change /veh RNFT2 (11725882_a_at) / RFU NR4A2 (11747474_a_at) / Fold change /veh NR4A2 (11747474_a_at) / RFU ABCC12 (11746883_a_at) / Fold change /veh ABCC12 (11746883_a_at) / RFU TMEM136 (11760407_x_at) / Fold change /veh TMEM136 (11760407_x_at) / RFU CLDN22 /// WWC2 (11732394_at) / Fold change /veh CLDN22 /// WWC2 (11732394_at) / RFU HLA-DPB1 (11760878_x_at) / Fold change /veh HLA-DPB1 (11760878_x_at) / RFU SPINT1 (11716480_a_at) / Fold change /veh SPINT1 (11716480_a_at) / RFU GAP43 (11754022_s_at) / Fold change /veh GAP43 (11754022_s_at) / RFU A4GNT (11735810_at) / Fold change /veh A4GNT (11735810_at) / RFU PRB3 (11715151_x_at) / Fold change /veh PRB3 (11715151_x_at) / RFU TUBB4B (11761932_at) / Fold change /veh TUBB4B (11761932_at) / RFU CAPN14 (11732068_a_at) / Fold change /veh CAPN14 (11732068_a_at) / RFU TMCC2 (11721928_a_at) / Fold change /veh TMCC2 (11721928_a_at) / RFU IRGQ (11745062_a_at) / Fold change /veh IRGQ (11745062_a_at) / RFU FAM174B (11720279_a_at) / Fold change /veh FAM174B (11720279_a_at) / RFU TMPRSS4 (11748680_a_at) / Fold change /veh TMPRSS4 (11748680_a_at) / RFU FAM212B (11763350_a_at) / Fold change /veh FAM212B (11763350_a_at) / RFU PLEKHG5 (11743358_a_at) / Fold change /veh PLEKHG5 (11743358_a_at) / RFU ZSCAN30 (11745921_a_at) / Fold change /veh ZSCAN30 (11745921_a_at) / RFU CMKLR1 (11741424_a_at) / Fold change /veh CMKLR1 (11741424_a_at) / RFU LOC101060620 /// MAPK8IP1 (11723275_at) / Fold change /veh LOC101060620 /// MAPK8IP1 (11723275_at) / RFU SPTSSB (11747773_x_at) / Fold change /veh SPTSSB (11747773_x_at) / RFU PRSS12 (11739890_at) / Fold change /veh PRSS12 (11739890_at) / RFU BIN1 (11741810_x_at) / Fold change /veh BIN1 (11741810_x_at) / RFU WNT11 (11732464_a_at) / Fold change /veh WNT11 (11732464_a_at) / RFU C10orf10 (11716521_a_at) / Fold change /veh C10orf10 (11716521_a_at) / RFU C5orf56 (11738089_at) / Fold change /veh C5orf56 (11738089_at) / RFU CYB561 (11721691_x_at) / Fold change /veh CYB561 (11721691_x_at) / RFU ANKRD19P (11752326_a_at) / Fold change /veh ANKRD19P (11752326_a_at) / RFU OR2T12 /// OR2T33 /// OR2T8 (11738714_s_at) / Fold change /veh OR2T12 /// OR2T33 /// OR2T8 (11738714_s_at) / RFU VCAN (11748164_a_at) / Fold change /veh VCAN (11748164_a_at) / RFU JSRP1 (11732532_at) / Fold change /veh JSRP1 (11732532_at) / RFU KRTAP10-11 (11738290_x_at) / Fold change /veh KRTAP10-11 (11738290_x_at) / RFU MYO3A (11730013_a_at) / Fold change /veh MYO3A (11730013_a_at) / RFU EBF3 (11725865_a_at) / Fold change /veh EBF3 (11725865_a_at) / RFU CAMK2N1 (11719241_x_at) / Fold change /veh CAMK2N1 (11719241_x_at) / RFU C5orf56 (11738088_a_at) / Fold change /veh C5orf56 (11738088_a_at) / RFU OLFML3 (11715873_a_at) / Fold change /veh OLFML3 (11715873_a_at) / RFU LOC100653217 /// NTM (11731650_a_at) / Fold change /veh LOC100653217 /// NTM (11731650_a_at) / RFU MAPK11 (11762145_a_at) / Fold change /veh MAPK11 (11762145_a_at) / RFU FIZ1 (11724087_x_at) / Fold change /veh FIZ1 (11724087_x_at) / RFU OASL (11726364_x_at) / Fold change /veh OASL (11726364_x_at) / RFU SOX15 (11748057_x_at) / Fold change /veh SOX15 (11748057_x_at) / RFU CD79A (11719716_a_at) / Fold change /veh CD79A (11719716_a_at) / RFU HIST1H1D (11736915_at) / Fold change /veh HIST1H1D (11736915_at) / RFU CASKIN2 (11723855_a_at) / Fold change /veh CASKIN2 (11723855_a_at) / RFU LOC730098 (11760151_x_at) / Fold change /veh LOC730098 (11760151_x_at) / RFU OR4N2 (11742367_at) / Fold change /veh OR4N2 (11742367_at) / RFU PRRT2 (11749266_a_at) / Fold change /veh PRRT2 (11749266_a_at) / RFU SNX32 (11753110_a_at) / Fold change /veh SNX32 (11753110_a_at) / RFU CDHR5 (11726645_a_at) / Fold change /veh CDHR5 (11726645_a_at) / RFU RCAN1 (11760418_a_at) / Fold change /veh RCAN1 (11760418_a_at) / RFU FAM167A (11723789_a_at) / Fold change /veh FAM167A (11723789_a_at) / RFU FAM26E (11764081_at) / Fold change /veh FAM26E (11764081_at) / RFU ISYNA1 (11749810_s_at) / Fold change /veh ISYNA1 (11749810_s_at) / RFU ACY1 (11761880_at) / Fold change /veh ACY1 (11761880_at) / RFU 11764098_at / Fold change /veh 11764098_at / RFU SAMD14 (11745864_x_at) / Fold change /veh SAMD14 (11745864_x_at) / RFU NPB (11741838_a_at) / Fold change /veh NPB (11741838_a_at) / RFU TMPRSS6 (11731388_a_at) / Fold change /veh TMPRSS6 (11731388_a_at) / RFU KRTAP10-2 (11738614_at) / Fold change /veh KRTAP10-2 (11738614_at) / RFU ARHGAP8 /// PRR5-ARHGAP8 (11727945_x_at) / Fold change /veh ARHGAP8 /// PRR5-ARHGAP8 (11727945_x_at) / RFU KRTAP5-7 /// NADSYN1 (11734609_at) / Fold change /veh KRTAP5-7 /// NADSYN1 (11734609_at) / RFU RASL12 (11751679_a_at) / Fold change /veh RASL12 (11751679_a_at) / RFU CDKN2B (11736163_a_at) / Fold change /veh CDKN2B (11736163_a_at) / RFU PRF1 (11729649_at) / Fold change /veh PRF1 (11729649_at) / RFU, ZNF638 /// ZNF638-IT1 / Fold change vs veh, ZNF638 /// ZNF638-IT1 / RFU, PANK3 / Fold change vs veh, PANK3 / RFU, SH3YL1 / Fold change vs veh, SH3YL1 / RFU, ZEB2 / Fold change vs veh, ZEB2 / RFU, NRIP1 / Fold change vs veh, NRIP1 / RFU, PTTG1IP / Fold change vs veh, PTTG1IP / RFU, CAPN2 / Fold change vs veh, CAPN2 / RFU, MED14 / Fold change vs veh, MED14 / RFU, SNORA58 / Fold change vs veh, SNORA58 / RFU, C1orf63 / Fold change vs veh, C1orf63 / RFU, LRRFIP1 / Fold change vs veh, LRRFIP1 / RFU, NDUFAF7 / Fold change vs veh, NDUFAF7 / RFU, SLC12A2 / Fold change vs veh, SLC12A2 / RFU, IBTK / Fold change vs veh, IBTK / RFU, ESF1 / Fold change vs veh, ESF1 / Fold change vs veh, TMEM50B / RFU, TAOK1 / Fold change vs veh, TAOK1 / RFU, ACBD3 / Fold change vs veh, ACBD3 / RFU, TMA16 / Fold change vs veh, TMA16 / RFU, RWDD3 / Fold change vs veh, RWDD3 / RFU, BCAT1 / Fold change vs veh, BCAT1 / RFU, EDEM3 / Fold change vs veh, EDEM3 / RFU, TMEM33 / Fold change vs veh, TMEM33 / RFU, WDR75 / Fold change vs veh, WDR75 / RFU, AHCTF1 / Fold change vs veh, AHCTF1 / RFU, TFRC / Fold change vs veh, TFRC / RFU, ZDHHC17 / Fold change vs veh, ZDHHC17 / RFU, NOM1 / Fold change vs veh, NOM1 / RFU, ARL8B / Fold change vs veh, ARL8B / RFU, ZBTB11 / Fold change vs veh, ZBTB11 / RFU, TAMM41 / Fold change vs veh, TAMM41 / RFU, KIAA1704 /// LOC100996395 / Fold change vs veh, KIAA1704 /// LOC100996395 / RFU, ING1 / Fold change vs veh, ING1 / RFU, TRMT61B / Fold change vs veh, TRMT61B / RFU, FUBP3 / Fold change vs veh, FUBP3 / RFU, TP53 / Fold change vs veh, TP53 / RFU, TNKS2 / Fold change vs veh, TNKS2 / RFU, ZFP14 / Fold change vs veh, ZFP14 / RFU, ACTR2 / Fold change vs veh, ACTR2 / RFU, PPP3R1 / Fold change vs veh, PPP3R1 / RFU, PIK3R1 / Fold change vs veh, PIK3R1 / RFU, HNRNPA1 / Fold change vs veh, HNRNPA1 / RFU, RNF170 / Fold change vs veh, RNF170 / RFU, ZNF28 / Fold change vs veh, ZNF28 / RFU, RNGTT / Fold change vs veh, RNGTT / RFU, OGT / Fold change vs veh, OGT / RFU, BRD1 / Fold change vs veh, BRD1 / RFU, MARS / Fold change vs veh, MARS / RFU, ZNF655 / Fold change vs veh, ZNF655 / RFU, FAHD1 / Fold change vs veh, FAHD1 / RFU, BDP1 / Fold change vs veh, BDP1 / RFU, LRRCC1 / Fold change vs veh, LRRCC1 / RFU, ARID1A / Fold change vs veh, ARID1A / RFU, ZNF146 / Fold change vs veh, ZNF146 / RFU, ZNF330 / Fold change vs veh, ZNF330 / RFU, GPN3 / Fold change vs veh, GPN3 / RFU, C9orf123 / Fold change vs veh, C9orf123 / RFU, N4BP2L2 / Fold change vs veh, N4BP2L2 / RFU, ARFIP1 / Fold change vs veh, ARFIP1 / RFU, FAM179B / Fold change vs veh, FAM179B / RFU, BCL10 / Fold change vs veh, BCL10 / RFU, UHRF1BP1L / Fold change vs veh, UHRF1BP1L / RFU, BET1 / Fold change vs veh, BET1 / RFU, CNOT2 / Fold change vs veh, CNOT2 / RFU, ZNF268 / Fold change vs veh, ZNF268 / Fold change vs veh, ZNF507 / RFU, DGCR2 / Fold change vs veh, DGCR2 / RFU, WDSUB1 / Fold change vs veh, WDSUB1 / Fold change vs veh, HSP90B1 /// MIR3652 / RFU, ADSS / Fold change vs veh, ADSS / RFU, GK / Fold change vs veh, GK / RFU, ZNF148 / Fold change vs veh, ZNF148 / RFU, TAF9 / Fold change vs veh, TAF9 / RFU, SLC1A5 / Fold change vs veh, SLC1A5 / RFU, SLMO2 / Fold change vs veh, SLMO2 / RFU, ABCC4 / Fold change vs veh, ABCC4 / RFU, LOC101060439 /// RAP1B / Fold change vs veh, LOC101060439 /// RAP1B / RFU, RFX7 / Fold change vs veh, RFX7 / RFU, GTPBP10 / Fold change vs veh, GTPBP10 / RFU, CNEP1R1 / Fold change vs veh, CNEP1R1 / RFU, BIVM-ERCC5 /// ERCC5 / Fold change vs veh, BIVM-ERCC5 /// ERCC5 / RFU, ILF3 / Fold change vs veh, ILF3 / RFU 11762660_at / Fold change /veh 11762660_at / RFU VCAN (11757783_s_at) / Fold change /veh VCAN (11757783_s_at) / RFU DDX43 (11728927_at) / Fold change /veh DDX43 (11728927_at) / RFU KRT8 (11758188_x_at) / Fold change /veh KRT8 (11758188_x_at) / RFU NKD1 (11759106_at) / Fold change /veh NKD1 (11759106_at) / RFU SRD5A1 (11742802_a_at) / Fold change /veh SRD5A1 (11742802_a_at) / RFU TPSAB1 /// TPSB2 (11721975_s_at) / Fold change /veh TPSAB1 /// TPSB2 (11721975_s_at) / RFU GSTM3 (11746129_a_at) / Fold change /veh GSTM3 (11746129_a_at) / RFU IL23R (11737362_x_at) / Fold change /veh IL23R (11737362_x_at) / RFU TMEM51 (11727254_a_at) / Fold change /veh TMEM51 (11727254_a_at) / RFU PIWIL2 (11732686_x_at) / Fold change /veh PIWIL2 (11732686_x_at) / RFU ORM1 (11744905_x_at) / Fold change /veh ORM1 (11744905_x_at) / RFU CCDC152 (11743942_at) / Fold change /veh CCDC152 (11743942_at) / RFU ECM1 (11717891_a_at) / Fold change /veh ECM1 (11717891_a_at) / RFU IL23R (11748794_a_at) / Fold change /veh IL23R (11748794_a_at) / RFU TNFAIP8L3 (11732012_x_at) / Fold change /veh TNFAIP8L3 (11732012_x_at) / RFU MBOAT4 (11741988_at) / Fold change /veh MBOAT4 (11741988_at) / RFU 11764193_at / Fold change /veh 11764193_at / RFU TMEM53 (11763286_at) / Fold change /veh TMEM53 (11763286_at) / RFU MAGEB2 (11727129_at) / Fold change /veh MAGEB2 (11727129_at) / RFU TMEM200A (11744735_a_at) / Fold change /veh TMEM200A (11744735_a_at) / RFU CCDC152 (11751479_a_at) / Fold change /veh CCDC152 (11751479_a_at) / RFU FAM211A (11726209_a_at) / Fold change /veh FAM211A (11726209_a_at) / RFU RGS16 (11746705_a_at) / Fold change /veh RGS16 (11746705_a_at) / RFU VCAN (11755009_s_at) / Fold change /veh VCAN (11755009_s_at) / RFU RHOB (11743442_s_at) / Fold change /veh RHOB (11743442_s_at) / RFU RGS16 (11720943_a_at) / Fold change /veh RGS16 (11720943_a_at) / RFU RGS16 (11720944_at) / Fold change /veh RGS16 (11720944_at) / RFU, VPS4B / Fold change vs veh, VPS4B / RFU, CREB1 / Fold change vs veh, CREB1 / RFU, DNAJC13 / Fold change vs veh, DNAJC13 / RFU, GNAQ / Fold change vs veh, GNAQ / RFU, CDK5R1 / Fold change vs veh, CDK5R1 / RFU, ZRANB3 / Fold change vs veh, ZRANB3 / RFU, CUL4A / Fold change vs veh, CUL4A / RFU, CCNY / Fold change vs veh, CCNY / RFU, UFL1 / Fold change vs veh, UFL1 / RFU, COG3 / Fold change vs veh, COG3 / RFU, DIAPH2 / Fold change vs veh, DIAPH2 / RFU, SKA2 / Fold change vs veh, SKA2 / RFU, AFF3 / Fold change vs veh, AFF3 / RFU, LMF1 / Fold change vs veh, LMF1 / RFU, IPO11 / Fold change vs veh, IPO11 / RFU, DFFB / Fold change vs veh, DFFB / RFU, FOXP1 / Fold change vs veh, FOXP1 / RFU, CARD8 / Fold change vs veh, CARD8 / RFU, STRN3 / Fold change vs veh, STRN3 / RFU, ADK / Fold change vs veh, ADK / RFU, RASSF2 / Fold change vs veh, RASSF2 / RFU, WIPF1 / Fold change vs veh, WIPF1 / RFU, LARP1B / Fold change vs veh, LARP1B / RFU, RASA1 / Fold change vs veh, RASA1 / RFU, RB1 / Fold change vs veh, RB1 / RFU, PPFIA1 / Fold change vs veh, PPFIA1 / RFU, MAT2A / Fold change vs veh, MAT2A / RFU, CCT5 / Fold change vs veh, CCT5 / RFU, WDR92 / Fold change vs veh, WDR92 / RFU, CUX1 / Fold change vs veh, CUX1 / RFU, TTC7A / Fold change vs veh, TTC7A / RFU, TMEM135 / Fold change vs veh, TMEM135 / RFU, DEPTOR / Fold change vs veh, DEPTOR / RFU, CPM / Fold change vs veh, CPM / RFU, DNAJB6 / Fold change vs veh, DNAJB6 / RFU, CACNA2D3 / Fold change vs veh, CACNA2D3 / RFU, DTX4 / Fold change vs veh, DTX4 / RFU, TFCP2 / Fold change vs veh, TFCP2 / RFU, GMCL1 /// GMCL1P1 / Fold change vs veh, GMCL1 /// GMCL1P1 / RFU, AEBP2 / Fold change vs veh, AEBP2 / RFU, SNHG1 /// SNORD22 /// SNORD25 /// SNORD26 /// SNORD27 /// SNORD28 /// SNORD29 /// SNORD31 / Fold change vs veh, SNHG1 /// SNORD22 /// SNORD25 /// SNORD26 /// SNORD27 /// SNORD28 /// SNORD29 /// SNORD31 / Fold change (Aza/veh), C12orf56 (ProbeSet 11735607_a_at) / Fold change (ACY-1035/veh), C12orf56 (ProbeSet 11735607_a_at) / Fold change (Aza/veh), FGFR1OP (ProbeSet 11751329_s_at) / Fold change (ACY-1035/veh), FGFR1OP (ProbeSet 11751329_s_at) / Fold change (Aza/veh), VPS36 (ProbeSet 11739960_a_at) / Fold change (ACY-1035/veh), VPS36 (ProbeSet 11739960_a_at) / RFU SYPL1 (11715823_x_at) / Fold change /veh SYPL1 (11715823_x_at) / RFU IGFBP7 (11715501_s_at) / Fold change /veh IGFBP7 (11715501_s_at) / RFU REEP3 (11722064_at) / Fold change /veh REEP3 (11722064_at) / RFU IGLL1 (11728026_x_at) / Fold change /veh IGLL1 (11728026_x_at): dose or concentration left out as unconfirmed
Details: MV-4-11 cells, 48 hours

Nc1ccc(-c2cccs2)cc1NC(=O)c1ccc2c(c1)cc(C1CC1)n2CCN1CCOCC1 [ACY-1035]
RFU ORM1 (11744905_x_at): 9.21 RFU
